[ ]: non-standard residue; d: D form.
What was measured:
[1] = target: T1, immobilized αvβ3 receptor (Homo sapiens, UniProt P05106+P06756); assay: Ligand receptor binding assay with ELISA detection
T1 construct: selected purified integrins were separately immobilized in Titertek microtiter wells
Method: In addition, the ability of peptides to inhibit the binding of either MMP-2 or VN to immobilized αvβ3 was assessed with peptides 69601 (SEQ ID NO: 6) and 66203 (SEQ ID NO: 5).

[2] = system: bFGF-induced angiogenesis; assay: CAM assay, growth factor-induced angiogenesis, intravenous application; format: in vivo, chick; settings: for inhibition of bFGF-induced angiogenesis (branch points): intravenous 18 hours after bFGF induction, FIG. 12
Method: J. Pathol., 79:597 (1975). CAMs were prepared from chick embryos for subsequent induction of angiogenesis and inhibition thereof as described in Examples 4 and 5, respectively. Ten day old chick embryos were obtained from McIntyre Poultry (Lakeside, Calif.) and incubated at 37° C. with 60% humidity. A small hole was made through the shell at the end of the egg directly over the air sac with the use of a small crafts drill (Dremel, Division of Emerson Electric Co. Racine Wis.). A second hole was drilled on the broad side of the egg in a region devoid of embryonic blood vessels determined previously by candling the egg. […] A 1.0 centimeter (cm)×1.0 cm square window was cut through the shell over the dropped CAM with the use of a small model grinding wheel (Dremel). The small window allowed direct access to the underlying CAM.
Angiogenesis was induced by placing a 5 millimeter (mm)×5 mm Whatman filter disk (Whatman Filter paper No.1) saturated with Hanks Balanced Salt Solution (HBSS, GIBCO, Grand Island, N.Y.) or HBSS containing 150 nanograms/milliliter (ng/ml) recombinant basic fibroblast growth factor (bFGF) (Genzyme, Cambridge, Mass.) on the CAM of a 10-day chick embryo in a region devoid of blood vessels and the windows were latter sealed with tape. In other assays, 125 ng/ml bFGF was also effective at inducing blood vessel growth. For assays where inhibition of angiogenesis ws evaluated with intravenous injections of antagonists, angiogenesis was first induced with 1-2 μg/ml bFGF in fibroblast growth medium. Angiogenesis was monitored by photomicroscopy after 72 hours. CAMs were snap frozen, and 6 um cryostat sections were fixed with acetone and stained by immunofluorescence as described in Example 3C with 10 μg/ml of either anti-β1 monoclonal antibody CSAT or LM609.
For CAM preparations in which angiogenesis was induced with 1-2 μg/ml bFGF as previously described, synthetic peptides 69601 (control) and 66203 (SEQ ID NO: 5) were separately intravenously injected into CAM preparations 18 hours after bFGF induction of angiogenesis. The preparations were maintained for an additional 36-40 hours after which time the number of branch points were determined as previously described.
In other assays, peptide 85189 (SEQ ID NO: 15) was evaluated for inhibiting bFGF-induced angiogenesis in the CAM assay over a dosage range of 10 μg/embryo to 300 μg/embryo. The assay was performed as previously described.
In still further assays, peptide 85189 was compared to peptides 69601 and 66203 for anti-angiogenesis activity. The assay was performed as described above with the exception that 50 μg peptide were used.
The effectiveness of the different salt formulations of peptide 85189 was also evaluated in similar bFGF-induced CAM assays. The peptides were used at 100 μg/embryo. […] Untreated CAMs, labeled as “no cytokine” had approximately […] as many branch points as that seen with bFGF treatment, respectively 70 versus 190.
With the above-described protocol, the effect of MMP-2 fusion proteins, CTMMP-2(2-4), also referred to as CTMMP-2(445-467) and CTMMP-2(10-1), also referred to as CTMMP-2(274-637) was also evaluated. The assay was performed as previously described with the exception that 50 μg of fusion protein was administered to the bFGF-treated embryos. The effect of fusion protein treatment was assessed at 24 hours, 48 hours and 72 hours.
The 10 day old CAM preparation was used as previously described in Example 5A. Twenty-four hours after bFGF-induced angiogenesis was initiated, the organic peptidomimetics referred to as compounds 16 (81218), 17 (87292) and 18 (87293) were separately intravenously injected into the CAM preparation in a volume of 100 μl at a concentration of 1 mg/ml (100 μg/embryo) in 20% tetraglycol-PBS at pH 7.0. In parallel assays, compounds 7 (96112), 9 (99799), 10 (96229), 12 (112854) and 14 (96113) were similarly evaluated. […]

[3] = system: human M21-L melanoma tumor; assay: Tumor regression in the CAM assay, M21-L; format: in vivo, chick
Method: As described in Example 5, in addition to visually assessing the effect of anti-αvβ3 antagonists on growth factor or tumor induced angiogenesis, the effect of the antagonists was also assessed by measuring any changes to the tumor mass following exposure. For this analysis, the tumor-induced angiogenesis CAM assay system was prepared as described in Example 4C. At the end of the 7 day incubation period, the resulting tumors were resected from the CAMs and trimmed free of any residual CAM tissue, washed with 1 ml of phosphate buffer saline and wet weights were determined for each tumor.
To further assess the effects of αvβ3 antagonists on tumor growth and survival, fragments of human melanoma and fragments of carcinomas of the lung, pancreas, and larynx were placed on CAMS of 10-day old embryos as described in Example 3A.
Human M21-L melanoma tumor fragments (50 mg) were implanted on the CAMs of 10 day old embryos as described in Example 3A and 3C. Twenty four hours later, embryos received a single intravenous injection of 300 μg/100 μl of either the cyclo-RADfV (69601) and or cyclo-RGDfV (66203). After a total of 72 hours, tumors were removed, examined morphologically, and photographed with a stereo microscope.
Additional tumor regression assays were performed with the αvβ3-reactive peptide 85189 (SEQ ID NO: 15) against 69601 as a control. […]

T1 sequence (P06756 31-889 limits assumed): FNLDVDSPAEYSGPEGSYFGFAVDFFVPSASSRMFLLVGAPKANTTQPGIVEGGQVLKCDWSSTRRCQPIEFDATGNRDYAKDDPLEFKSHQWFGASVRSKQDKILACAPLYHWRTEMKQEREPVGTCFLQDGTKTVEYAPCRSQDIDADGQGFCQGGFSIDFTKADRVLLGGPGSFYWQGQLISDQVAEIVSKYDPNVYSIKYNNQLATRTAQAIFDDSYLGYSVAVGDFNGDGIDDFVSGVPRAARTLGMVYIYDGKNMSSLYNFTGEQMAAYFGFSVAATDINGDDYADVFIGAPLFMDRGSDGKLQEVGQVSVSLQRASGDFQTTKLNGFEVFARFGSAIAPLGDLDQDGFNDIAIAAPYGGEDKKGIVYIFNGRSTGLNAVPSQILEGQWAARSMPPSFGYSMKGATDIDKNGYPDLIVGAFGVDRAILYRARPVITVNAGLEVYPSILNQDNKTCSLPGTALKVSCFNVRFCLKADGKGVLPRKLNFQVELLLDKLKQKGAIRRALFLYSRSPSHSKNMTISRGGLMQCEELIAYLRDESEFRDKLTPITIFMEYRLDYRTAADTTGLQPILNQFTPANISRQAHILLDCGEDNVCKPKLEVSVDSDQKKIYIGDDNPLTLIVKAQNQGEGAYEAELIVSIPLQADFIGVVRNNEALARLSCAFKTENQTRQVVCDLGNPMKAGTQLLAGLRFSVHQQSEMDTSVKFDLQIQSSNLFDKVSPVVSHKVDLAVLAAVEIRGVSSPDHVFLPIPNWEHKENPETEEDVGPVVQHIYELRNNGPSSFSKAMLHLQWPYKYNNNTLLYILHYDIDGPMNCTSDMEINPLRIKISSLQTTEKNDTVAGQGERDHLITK
T1 sequence (P06756 891-1048 partner limits assumed): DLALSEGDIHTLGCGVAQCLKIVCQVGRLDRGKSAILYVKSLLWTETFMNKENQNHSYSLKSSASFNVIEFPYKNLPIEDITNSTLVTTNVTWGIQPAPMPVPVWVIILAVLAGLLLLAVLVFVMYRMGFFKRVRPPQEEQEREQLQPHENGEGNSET
T1 sequence (P05106 27-788): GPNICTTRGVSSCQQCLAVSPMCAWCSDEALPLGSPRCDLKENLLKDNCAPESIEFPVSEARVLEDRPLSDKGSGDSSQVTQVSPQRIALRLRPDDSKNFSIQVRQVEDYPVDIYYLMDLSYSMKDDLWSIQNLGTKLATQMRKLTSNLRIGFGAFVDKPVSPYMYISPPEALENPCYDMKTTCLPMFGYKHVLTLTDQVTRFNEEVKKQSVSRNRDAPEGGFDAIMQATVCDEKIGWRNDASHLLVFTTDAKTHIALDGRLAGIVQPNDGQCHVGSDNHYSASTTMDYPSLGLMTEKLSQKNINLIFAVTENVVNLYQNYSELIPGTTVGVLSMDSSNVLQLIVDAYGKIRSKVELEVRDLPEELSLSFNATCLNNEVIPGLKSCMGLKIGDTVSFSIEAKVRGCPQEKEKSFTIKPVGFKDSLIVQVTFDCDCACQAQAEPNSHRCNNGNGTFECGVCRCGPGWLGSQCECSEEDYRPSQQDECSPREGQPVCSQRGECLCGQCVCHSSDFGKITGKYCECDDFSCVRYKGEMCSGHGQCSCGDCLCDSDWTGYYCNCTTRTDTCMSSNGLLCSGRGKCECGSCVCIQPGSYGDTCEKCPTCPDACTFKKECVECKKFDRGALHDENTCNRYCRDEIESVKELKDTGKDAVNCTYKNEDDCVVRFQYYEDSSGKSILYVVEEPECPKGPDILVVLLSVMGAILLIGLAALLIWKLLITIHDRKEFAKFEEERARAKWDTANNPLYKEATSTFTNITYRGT

Substance: cyclo (RGDfV) [Peptide 66203]
- inhibition of binding of MMP-2 or VN to immobilized αvβ3 [1]: effective at inhibiting the binding of either substrate
- inhibition of bFGF-mediated angiogenesis ([2]; 50 μg peptide, FIG. 14): effective inhibitors of bFGF-mediated angiogenesis
- inhibiting angiogenesis, HCl versus TFA peptide ([2]; assays of Example 5): slightly more effective
- inhibition of bFGF-induced angiogenesis (branch points) [2]: completely inhibited
- inhibition of vessel formation in tumor ([3]; single intravenous injection of 300 μg/100 μl, 72 hours): inhibited vessel formation

Substance: cyclo (RADfV) (cyclo(RAD[dF]V); SMILES CC(C)[C@@H]1NC(=O)[C@@H](Cc2ccccc2)NC(=O)[C@H](CC(=O)O)NC(=O)[C@H](C)NC(=O)[C@H](CCCNC(=N)N)NC1=O) [Peptide 69601, reference compound]
- inhibition of binding of MMP-2 or VN to immobilized αvβ3 [1]: failed to have an effect with either ligand
- inhibition of bFGF-induced angiogenesis, salt formulations ([2]; 100 μg/embryo): no effect on inhibiting angiogenesis
- number of branch points ([2]; 100 μg/embryo, bFGF alone 190, no cytokine 70): 230 branch points
- inhibition of bFGF-induced angiogenesis (branch points) [2]: absence of inhibition
- effect on tumor weight, M21-L ([3]; 100 μg intravenously 18 hours post-implantation, FIG. 16): lack of effect

— US20040063790A1, “Methods for inhibition of angiogenesis” (The Scripps Research Institute, priority 1996, published 2004)
